The results in this text go back to patent US11377453B2, “Crystal of compound having JAK-inhibiting activity” (NIPPON SHINYAKU CO., LTD., priority 2016, dated 2022).

Common to all, as to format: biochemical
The target of one assay is T1, JAK1 (Homo sapiens, UniProt P23458).
T1 construct: purchased Carna Biosciences, Inc
The experiment in a line: JAK tyrosine kinase inhibitory activity in the presence of 1 mM ATP (ELISA), JAK1. The protocol:
(§1) The test compound was dissolved in dimethyl sulfoxide (DMSO) to 10 mM and further diluted with DMSO to the concentrations of 1000, 100, 10, 1, 0.1 and 0.01 μM, respectively. For JAK1, these solutions of the test compound at the six concentrations 10 mM, 1000 μM, 100 μM, 10 μM, 1 μM and 0.1 μM were used. For JAK2 and JAK3, these solutions of the test compound at the six concentrations 1000 μM, 100 μM, 10 μM, 1 μM, 0.1 μM and 0.01 μM were used. The test compound solutions were diluted further to 20-fold with an assay buffer to obtain a sample solution. 15 mM Tris-HCl (pH7.5), 0.01 (v/v) % Tween-20 and 1 mM dithiothreitol were used as an assay buffer. DMSO was diluted to 20-fold with the assay buffer and was used as a negative control.
(§2) The activity was determined by ELISA method. Each of the sample solutions was added to a streptavidin coated 96-well plate (DELFIA Strip Plate 8×12 well, PerkinElmer) at 10 μL/well (n=2). […] Finally, JAK tyrosine kinase (Carna Biosciences, Inc.), which was previously diluted with the assay buffer to 7.5 nM for JAK1 and 0.75 nM for JAK2 and JAK3, was added to the plate at 20 μL/well, and the plate was incubated at 30° C. for 1 h. The plate was washed four times with buffer (50 mM Tris-HCl (pH 7.5), 150 mM NaCl, 0.02 (v/v) % Tween-20). A blocking buffer (0.1% Bovine Serum Albumin, 50 mM Tris-HCl (pH 7.5), 150 mM NaCl, 0.02 (v/v) % Tween-20) was added to the plate at 150 μL/well, and the plate was blocked at 30° C. for 1 h. The blocking buffer was removed, and a horse radish peroxidase-labeled anti-phosphorylated tyrosine antibody (BD Biosciences, Inc.) (diluted to 10000-fold with the blocking buffer) was added to the plate at 100 μL/well, and the plate was incubated at 30° C. for 30 min. The plate was washed with the washing buffer four times, and 3,3′,5,5′-tetramethylbenzidine solution (Nacalai Tesque) was added to the plate at 100 μL/well to develop the color for 10 minutes. To the plate was added 0.1 M sulfuric acid at 100 μL/well to stop the reaction. The absorbance at 450 nm was measured using a microplate reader (BIO-RAD).

The target of another assay is T2, JAK2 (Homo sapiens, UniProt O60674).
T2 construct: purchased Carna Biosciences, Inc
T2 sequence (O60674 whole entry): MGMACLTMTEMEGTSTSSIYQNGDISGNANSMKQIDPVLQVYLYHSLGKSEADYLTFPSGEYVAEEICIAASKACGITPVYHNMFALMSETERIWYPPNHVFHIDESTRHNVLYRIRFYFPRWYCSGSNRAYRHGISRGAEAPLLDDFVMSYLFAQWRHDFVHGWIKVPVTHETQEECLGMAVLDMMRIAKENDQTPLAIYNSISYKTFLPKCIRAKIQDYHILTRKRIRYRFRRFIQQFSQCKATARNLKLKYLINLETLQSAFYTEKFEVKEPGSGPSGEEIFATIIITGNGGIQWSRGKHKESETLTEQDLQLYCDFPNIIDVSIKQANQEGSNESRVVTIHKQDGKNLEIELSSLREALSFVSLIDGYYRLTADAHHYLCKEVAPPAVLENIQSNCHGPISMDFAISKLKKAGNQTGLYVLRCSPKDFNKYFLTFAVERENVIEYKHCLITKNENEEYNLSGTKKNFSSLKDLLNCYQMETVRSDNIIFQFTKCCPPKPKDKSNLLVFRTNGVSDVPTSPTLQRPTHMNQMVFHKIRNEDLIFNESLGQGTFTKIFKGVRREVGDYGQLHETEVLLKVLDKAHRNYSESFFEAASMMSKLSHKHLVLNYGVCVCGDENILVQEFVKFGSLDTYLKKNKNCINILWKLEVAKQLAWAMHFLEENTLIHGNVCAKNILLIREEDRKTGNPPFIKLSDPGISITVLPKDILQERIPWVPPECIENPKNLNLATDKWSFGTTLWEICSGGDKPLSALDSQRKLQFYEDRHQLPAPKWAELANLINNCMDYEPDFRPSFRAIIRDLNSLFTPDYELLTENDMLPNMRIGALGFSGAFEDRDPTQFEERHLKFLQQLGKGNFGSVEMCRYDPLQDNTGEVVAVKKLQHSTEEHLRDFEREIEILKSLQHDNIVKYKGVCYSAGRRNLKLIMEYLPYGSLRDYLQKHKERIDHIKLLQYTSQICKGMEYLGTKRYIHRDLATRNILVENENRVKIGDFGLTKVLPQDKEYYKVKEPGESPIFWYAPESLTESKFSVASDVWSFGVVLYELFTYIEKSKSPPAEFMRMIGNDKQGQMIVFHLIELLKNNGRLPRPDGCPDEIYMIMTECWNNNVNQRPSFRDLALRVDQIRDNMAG
The experiment in a line: JAK tyrosine kinase inhibitory activity in the presence of 1 mM ATP (ELISA), JAK2. The protocol: as §1, §2

Another assay addresses T3, JAK3 (Homo sapiens, UniProt P52333).
T3 construct: purchased Carna Biosciences, Inc
T3 sequence (P52333 1-1124): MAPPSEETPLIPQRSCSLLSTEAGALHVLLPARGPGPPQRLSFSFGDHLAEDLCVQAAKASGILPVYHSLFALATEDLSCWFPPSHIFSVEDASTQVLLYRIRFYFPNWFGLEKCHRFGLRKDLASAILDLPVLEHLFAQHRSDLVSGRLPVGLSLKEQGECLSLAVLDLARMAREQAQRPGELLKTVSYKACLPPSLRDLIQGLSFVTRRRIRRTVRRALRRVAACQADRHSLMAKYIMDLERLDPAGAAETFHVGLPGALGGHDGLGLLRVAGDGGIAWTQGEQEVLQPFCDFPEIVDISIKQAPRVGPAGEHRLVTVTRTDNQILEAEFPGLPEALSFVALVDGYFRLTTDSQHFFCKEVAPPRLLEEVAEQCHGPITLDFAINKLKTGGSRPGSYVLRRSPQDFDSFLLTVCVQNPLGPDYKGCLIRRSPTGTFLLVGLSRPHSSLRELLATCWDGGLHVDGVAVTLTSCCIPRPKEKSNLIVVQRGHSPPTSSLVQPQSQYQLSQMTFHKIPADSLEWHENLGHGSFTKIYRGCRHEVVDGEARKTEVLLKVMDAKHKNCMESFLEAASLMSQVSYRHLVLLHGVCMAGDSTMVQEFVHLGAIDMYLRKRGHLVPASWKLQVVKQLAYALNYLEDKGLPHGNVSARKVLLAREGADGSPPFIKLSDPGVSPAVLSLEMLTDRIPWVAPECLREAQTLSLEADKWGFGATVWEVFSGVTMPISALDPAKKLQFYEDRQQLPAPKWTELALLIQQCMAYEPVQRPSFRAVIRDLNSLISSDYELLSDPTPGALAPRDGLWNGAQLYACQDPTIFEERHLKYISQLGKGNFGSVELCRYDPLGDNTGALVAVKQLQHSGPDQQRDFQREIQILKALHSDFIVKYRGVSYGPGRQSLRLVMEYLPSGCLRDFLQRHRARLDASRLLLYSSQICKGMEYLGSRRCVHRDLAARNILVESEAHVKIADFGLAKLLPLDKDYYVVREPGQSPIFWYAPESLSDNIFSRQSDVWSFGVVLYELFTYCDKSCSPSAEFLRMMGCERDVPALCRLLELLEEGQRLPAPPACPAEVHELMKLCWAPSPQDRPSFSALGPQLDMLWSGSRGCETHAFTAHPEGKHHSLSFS
The experiment in a line: JAK tyrosine kinase inhibitory activity in the presence of 1 mM ATP (ELISA), JAK3. The method, then: as §1, §2
In general terms: ELISA stands for enzyme-linked immunosorbent assay.

SMILES strings stand for the structures. Structures can show the parent of a compound that is named as a salt.

T1 sequence (P23458 whole entry): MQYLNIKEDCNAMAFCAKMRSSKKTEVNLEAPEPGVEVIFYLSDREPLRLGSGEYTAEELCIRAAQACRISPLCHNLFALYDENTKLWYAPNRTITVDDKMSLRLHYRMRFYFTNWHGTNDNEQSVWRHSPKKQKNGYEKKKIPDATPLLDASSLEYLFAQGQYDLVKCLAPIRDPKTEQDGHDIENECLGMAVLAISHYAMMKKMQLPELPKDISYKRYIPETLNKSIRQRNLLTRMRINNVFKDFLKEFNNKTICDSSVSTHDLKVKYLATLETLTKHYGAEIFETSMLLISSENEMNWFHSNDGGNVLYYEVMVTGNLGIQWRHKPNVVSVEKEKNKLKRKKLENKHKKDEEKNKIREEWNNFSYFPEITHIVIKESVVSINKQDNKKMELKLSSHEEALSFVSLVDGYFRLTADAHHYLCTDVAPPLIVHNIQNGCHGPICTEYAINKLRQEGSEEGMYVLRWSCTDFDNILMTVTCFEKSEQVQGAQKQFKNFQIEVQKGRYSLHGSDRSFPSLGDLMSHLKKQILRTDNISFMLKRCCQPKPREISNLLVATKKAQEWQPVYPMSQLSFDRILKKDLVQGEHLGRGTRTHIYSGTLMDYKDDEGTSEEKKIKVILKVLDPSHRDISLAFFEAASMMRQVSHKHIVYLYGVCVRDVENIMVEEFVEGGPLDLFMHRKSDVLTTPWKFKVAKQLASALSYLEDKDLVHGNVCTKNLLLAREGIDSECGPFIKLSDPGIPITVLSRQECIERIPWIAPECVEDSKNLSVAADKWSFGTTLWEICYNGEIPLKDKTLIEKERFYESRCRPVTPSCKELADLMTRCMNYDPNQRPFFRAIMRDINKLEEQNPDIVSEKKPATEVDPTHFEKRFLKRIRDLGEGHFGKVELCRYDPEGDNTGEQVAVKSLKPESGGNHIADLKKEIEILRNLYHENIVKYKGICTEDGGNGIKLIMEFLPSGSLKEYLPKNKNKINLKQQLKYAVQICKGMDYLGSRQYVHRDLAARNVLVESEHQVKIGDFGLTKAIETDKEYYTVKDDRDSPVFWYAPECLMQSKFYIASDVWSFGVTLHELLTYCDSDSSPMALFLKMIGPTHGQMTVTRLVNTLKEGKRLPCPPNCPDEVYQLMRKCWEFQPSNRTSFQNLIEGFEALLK

What is called IC50 is the concentration that gives 50% inhibition. Regarding `CC[C@H](C)Nc1cc(C(=O)N2CCC(NC(=O)OC)CC2)nc(-c2cnn3ccsc23)n1` [Example 1, Methyl [1-({6-[(2S)-butan-2-ylamino]-2-(pyrazolo [5,1-b][1,3]thiazol-7-yl)pyrimidin-4-yl}carbonyl)piperidin-4-yl]carbamate Tosylate Monohydrate], the IC50 amounted to 310 nM on JAK1, 3700 nM on JAK2 and 3000 nM at JAK3.

`CC[C@@H](C)Nc1cc(C(=O)N2CCC(NC(=O)OC)CC2)nc(-c2cnn3ccsc23)n1` [Example 2, Methyl [1-({6-[(2R)-butan-2-ylamino]-2-(pyrazolo[5,1-b][1,3]thiazol-7-yl)pyrimidin-4-yl}carbonyl)piperidin-4-yl]carbamate Tosylate Monohydrate]: the results for the IC50 at JAK1, on JAK2 and at JAK3 were 470 nM, 5700 nM and 6000 nM, respectively.

For `COC(=O)NC1CCN(C(=O)c2cc(N[C@@H](C)C3CC3)nc(-c3cnn4ccsc34)n2)CC1` [Example 3, Methyl (1-{[6-{[(1S)-1-cyclopropylethyl]amino}-2-(pyrazolo[5,1-b][1,3]thiazol-7-yl)pyrimidin-4-yl]carbonyl}piperidin-4-yl)carbamate Tosylate Monohydrate], the results for the IC50 on JAK1, at JAK2 and on JAK3 were 270 nM, 2600 nM and 1900 nM, respectively.
